Data taken from patent US20110086759A1, “CHEMICAL COMPOUNDS” (SYNGENTA CROP PROTECTION, INC., priority 2007, published 2011).

Assays:
Assay type in all cases: in vivo
[1] = system: Alopecurus myosuroides (ALOMY); experiment: Pre-emergence biological efficacy, glasshouse pot test; conditions: 312 h, pre-emergence, 1,000 g/ha, evaluated after 13 days (100=total damage; 0=no damage), read-out: Percentage damage ALOMY
Procedure, shortened: (§1)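 Test compound, formulated in acetone/water (50:50) containing 0.5% Tween 20 and diluted into an aqueous spray, was applied at 1000 or 250 g/ha to pots sown one day earlier. Injury was rated after 13 days, 100 meaning total damage.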

Setaria faberi (SETFA) [2] = experiment: as above; conditions: 312 h, pre-emergence, 1,000 g/ha, evaluated after 13 days (100=total damage; 0=no damage), read-out: Percentage damage SETFA
Procedure, shortened: as §1

Solanum nigrum (SOLNI) [3] = experiment: as above; conditions: 312 h, pre-emergence, 1,000 g/ha, evaluated after 13 days (100=total damage; 0=no damage), read-out: Percentage damage SOLNI
Procedure, shortened: as §1

[4] = system: Amaranthus retoflexus (AMARE); experiment: as above; conditions: Amaranthus retroflexus, 312 h; pre-emergence, 1,000 g/ha, evaluated after 13 days (100=total damage; 0=no damage); read-out: Percentage damage AMARE
Procedure, shortened: as §1

[5] = system: Echinochloa crus-galli (ECHCG); experiment: as above; conditions: 312 h, pre-emergence, 1,000 g/ha, evaluated after 13 days (100=total damage; 0=no damage), read-out: Percentage damage ECHCG
Procedure, shortened: as §1

[6] = system: Ipomea hederaceae (IPOHE); experiment: as above; conditions: Ipomoea hederacea, 312 h; pre-emergence, 1,000 g/ha, evaluated after 13 days (100=total damage; 0=no damage); read-out: Percentage damage IPOHE
Procedure, shortened: as §1

[7] = system: Alopecurus myosuroides (ALOMY); experiment: Post-emergence biological efficacy, glasshouse pot test; conditions: 312 h, post-emergence, 1,000 g/ha, evaluated after 13 days (100=total damage; 0=no damage), read-out: Percentage damage caused to weed species, ALOMY
Procedure, shortened: (§2)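 Plants were sown in standard soil and grown 8 days in a glasshouse (24/16° C. day/night, 14 hours light, 65% humidity), then sprayed post-emergence at 1000 or 250 g/ha from acetone/water (50:50) with 0.5% Tween 20. Damage was scored visually after 13 days (0 = none, 100 = total).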

Setaria faberi (SETFA) [8] = experiment: as above; conditions: 312 h, post-emergence, 1,000 g/ha, evaluated after 13 days (100=total damage; 0=no damage), read-out: Percentage damage caused to weed species, SETFA
Procedure, shortened: as §2

Solanum nigrum (SOLNI) [9] = experiment: as above; conditions: 312 h, post-emergence, 1,000 g/ha, evaluated after 13 days (100=total damage; 0=no damage), read-out: Percentage damage caused to weed species, SOLNI
Procedure, shortened: as §2

[10] = system: Amaranthus retoflexus (AMARE); experiment: as above; conditions: Amaranthus retroflexus, 312 h; post-emergence, 1,000 g/ha, evaluated after 13 days (100=total damage; 0=no damage); read-out: Percentage damage caused to weed species, AMARE
Procedure, shortened: as §2

[11] = system: Echinochloa crus-galli (ECHCG); experiment: as above; conditions: 312 h, post-emergence, 1,000 g/ha, evaluated after 13 days (100=total damage; 0=no damage), read-out: Percentage damage caused to weed species, ECHCG
Procedure, shortened: as §2

[12] = system: Ipomea hederaceae (IPOHE); experiment: as above; conditions: Ipomoea hederacea, 312 h; post-emergence, 1,000 g/ha, evaluated after 13 days (100=total damage; 0=no damage); read-out: Percentage damage caused to weed species, IPOHE
Procedure, shortened: as §2

| Structure (SMILES) | pest or weed control at 1000 g/ha [1] | pest or weed control at 1000 g/ha (Setaria faberi (SETFA) [2]) | pest or weed control at 1000 g/ha (Solanum nigrum (SOLNI) [3]) | pest or weed control at 1000 g/ha [4] | pest or weed control at 1000 g/ha [5] | pest or weed control at 1000 g/ha [6] | pest or weed control at 1000 g/ha [7] | pest or weed control at 1000 g/ha (Setaria faberi (SETFA) [8]) | pest or weed control at 1000 g/ha (Solanum nigrum (SOLNI) [9]) | pest or weed control at 1000 g/ha [10] | pest or weed control at 1000 g/ha [11] | pest or weed control at 1000 g/ha [12] |
| --- | --- | --- | --- | --- | --- | --- | --- | --- | --- | --- | --- | --- |
| COC(=O)c1nc(C2CC2)nc(NCC(=O)OCc2ccccc2)c1Cl [Compound 4-265, 5-Chloro-2-cyclopropyl-6-methoxycarbonyl-4-(phenylmethoxy-carbonylmethyl-amino)pyrimidine] | 10% | 30% | 90% | 100% | 30% | 90% | 20% | 40% | 70% | 100% | 20% | 60% |
| COC(=O)c1nc(C2CC2)nc(NCCC(=O)OCc2ccccc2)c1Cl [Compound 4-266, 5-Chloro-2-cyclopropyl-6-methoxycarbonyl-4-[2-(phenylmethoxy-carbonyl)ethyl-amino]-pyrimidine] | 50% | 60% | 100% | 100% | 60% | 100% | 60% | 70% | 80% | 100% | 50% | 100% |
| COC(=O)c1nc(C2CC2)nc(NCC(c2ccccc2)c2ccccc2)c1Cl [Compound 4-267, 5-Chloro-2-cyclopropyl-4-[2,2-(diphenyl)-ethylamino]-6-methoxycarbonyl-pyrimidine] | 10% | 10% | 60% | 90% | 10% | 60% | 10% | 20% | 80% | 90% | 10% | 70% |
| COC(=O)c1nc(C2CC2)nc(NC(C)COc2ccccc2)c1Cl (stereo not drawn) [Compound 4-268, 5-Chloro-2-cyclopropyl-6-methoxycarbonyl-4-(2-phenoxy-1-methylethylamino)-pyrimidine] | 0% | 0% | 10% | 10% | 0% | 10% | 10% | 10% | 60% | 30% | 10% | 50% |
| COC(=O)c1nc(C2CC2)nc(NC(C)COc2ccc(C#N)cc2)c1Cl (stereo not drawn) [Compound 4-269, 5-Chloro-4-[2-(4-cyanophenoxy)-1-methyl-ethylamino]-2-cyclopropyl-6-methoxycarbonyl-pyrimidine] | 0% | 0% | 0% | 40% | 0% | 0% | 20% | 60% | 70% | 100% | 0% | 90% |
